Data on one compound can be found in patent US20240174718A1, “RYANODINE RECEPTOR INHIBITOR COMPOUNDS AND METHODS RELATING THERETO” (Vanderbilt University, priority 2022, published 2024).

The target of data set [1] is T1, RyR2 (Sus scrofa, UniProt A0A5G2R1W3).
T1 construct: isolated SR vesicles derived from porcine cardiac muscle; from tissue; host or cells: porcine heart (cardiac sarcoplasmic reticulum vesicles)
As to the kind of experiment: [3H]ryanodine ligand binding assay in cardiac SR vesicles. Details: species or system porcine. The note with it: relative to vehicle (DMSO). The protocol:
RyR2 activity was quantified by the fraction of [^3H]ryanodine bound to RyR2. […] Data are shown as mean±SD (n=6).
[^3H]ryanodine ligand binding assay—[^3H]ryanodine, [9,21-3H(N)] (56 Ci/mmol) was obtained from PerkinElmer. Porcine cardiac SR vesicles were isolated as previously described (Fruen et al., 2000) and incubated with, 200 nM CaM binding peptide, 0.1 μM CaCl2, 20 mM PIPES, 150 mM KCl, 5 mM GSH, 0.1 mg/mL BSA, 1 μg/mL aprotininin, lug/mL leupeptin, and 1 μM DTT for 30 min at 37° C. […] In 96-well plates, cardiac SR membranes (CSR, 3 mg/mL) were pre-incubated with 1% v/v ent-B1 (to yield the indicated drug concentrations) for 30 min, at 22° C., in a solution containing 150 mM KCl, 5 mM GSH, 1 μg/mL Aprotinin/Leupeptin, 1 mM EGTA, and 23 μM or 1.62 mM CaCl2 (100 nM or 30 μM free Ca^2+, respectively as determined by MaxChelator), 0.1 mg/mL BSA, and 20 mM K-PIPES (pH 7.0). Non-specific [^3H]ryanodine binding to SR was assessed by addition of 15 μM non-radioactive ryanodine. Maximal [^3H]ryanodine binding was assessed by addition of 5 mM adenylyl-imidodiphosphate (AMP-PNP), supplemented with 20 mM caffeine. […] Binding of [^3H]ryanodine (7.5 nM) was determined following a 3 h incubation at 37° C. and filtration through grade GF/B glass microfiber filters (Brandel Inc., Gaithersburg, MD, US) using a M96T-Brandel Harvester. […]

Data set [2] can be described thus: Plasma stability ex vivo. Format: in vitro ADME. The note with it: mouse; murine plasma, 37° C., two hours; read-out: parent compound remaining in plasma. The protocol:
FIGS. 11(A-B) show in vivo pharmacokinetics in mice for a compound of the present invention. […] N=3 mice. Plasma collected serially at 0.167, 0.333. 0.5, 1, 3, and 8 hours post-administration. […] Individual data points (grey) shown alongside mean values with connecting lines.
Plasma stability experiments—Drug-free mouse plasma was preincubated in a 96-well polypropylene plate for 30 minutes on a microplate shaker at 37° C. prior to the addition of ent-B1 (final concentration 1900 ng/mL). Drug was added to individual wells (n=3 per compound), mixed thoroughly, and 50 μL of plasma was removed at 0, 15, 30, 45 60, 90, and 120 minutes to evaluate compound stability in mouse plasma at 37° C. Samples removed at each time point were transferred to a 96-well polypropylene plate containing 300 μL of ice-cold acetonitrile containing internal standard (ent-verticilide-d12; 100 ng/mL). Samples were mixed multiple times with a pipette to ensure precipitation of plasma proteins and the plate was covered with an adhesive film to prevent solvent evaporation. […] Peak area ratios of the analyte and internal standard for each sample were analyzed by liquid chromatography coupled to tandem mass spectrometry (LC-MS/MS) and normalized to the area ratio for time point 0 (baseline) to calculate the percent of ent-B1 remaining at each time point. […]

pIC50: −log10 of the molar value. Values joined by “and” are separate entries in the source; they are usually repeats but may differ in a detail not shown here. Equal values may be shown once.

T1 sequence (A0A5G2R1W3 20-4900): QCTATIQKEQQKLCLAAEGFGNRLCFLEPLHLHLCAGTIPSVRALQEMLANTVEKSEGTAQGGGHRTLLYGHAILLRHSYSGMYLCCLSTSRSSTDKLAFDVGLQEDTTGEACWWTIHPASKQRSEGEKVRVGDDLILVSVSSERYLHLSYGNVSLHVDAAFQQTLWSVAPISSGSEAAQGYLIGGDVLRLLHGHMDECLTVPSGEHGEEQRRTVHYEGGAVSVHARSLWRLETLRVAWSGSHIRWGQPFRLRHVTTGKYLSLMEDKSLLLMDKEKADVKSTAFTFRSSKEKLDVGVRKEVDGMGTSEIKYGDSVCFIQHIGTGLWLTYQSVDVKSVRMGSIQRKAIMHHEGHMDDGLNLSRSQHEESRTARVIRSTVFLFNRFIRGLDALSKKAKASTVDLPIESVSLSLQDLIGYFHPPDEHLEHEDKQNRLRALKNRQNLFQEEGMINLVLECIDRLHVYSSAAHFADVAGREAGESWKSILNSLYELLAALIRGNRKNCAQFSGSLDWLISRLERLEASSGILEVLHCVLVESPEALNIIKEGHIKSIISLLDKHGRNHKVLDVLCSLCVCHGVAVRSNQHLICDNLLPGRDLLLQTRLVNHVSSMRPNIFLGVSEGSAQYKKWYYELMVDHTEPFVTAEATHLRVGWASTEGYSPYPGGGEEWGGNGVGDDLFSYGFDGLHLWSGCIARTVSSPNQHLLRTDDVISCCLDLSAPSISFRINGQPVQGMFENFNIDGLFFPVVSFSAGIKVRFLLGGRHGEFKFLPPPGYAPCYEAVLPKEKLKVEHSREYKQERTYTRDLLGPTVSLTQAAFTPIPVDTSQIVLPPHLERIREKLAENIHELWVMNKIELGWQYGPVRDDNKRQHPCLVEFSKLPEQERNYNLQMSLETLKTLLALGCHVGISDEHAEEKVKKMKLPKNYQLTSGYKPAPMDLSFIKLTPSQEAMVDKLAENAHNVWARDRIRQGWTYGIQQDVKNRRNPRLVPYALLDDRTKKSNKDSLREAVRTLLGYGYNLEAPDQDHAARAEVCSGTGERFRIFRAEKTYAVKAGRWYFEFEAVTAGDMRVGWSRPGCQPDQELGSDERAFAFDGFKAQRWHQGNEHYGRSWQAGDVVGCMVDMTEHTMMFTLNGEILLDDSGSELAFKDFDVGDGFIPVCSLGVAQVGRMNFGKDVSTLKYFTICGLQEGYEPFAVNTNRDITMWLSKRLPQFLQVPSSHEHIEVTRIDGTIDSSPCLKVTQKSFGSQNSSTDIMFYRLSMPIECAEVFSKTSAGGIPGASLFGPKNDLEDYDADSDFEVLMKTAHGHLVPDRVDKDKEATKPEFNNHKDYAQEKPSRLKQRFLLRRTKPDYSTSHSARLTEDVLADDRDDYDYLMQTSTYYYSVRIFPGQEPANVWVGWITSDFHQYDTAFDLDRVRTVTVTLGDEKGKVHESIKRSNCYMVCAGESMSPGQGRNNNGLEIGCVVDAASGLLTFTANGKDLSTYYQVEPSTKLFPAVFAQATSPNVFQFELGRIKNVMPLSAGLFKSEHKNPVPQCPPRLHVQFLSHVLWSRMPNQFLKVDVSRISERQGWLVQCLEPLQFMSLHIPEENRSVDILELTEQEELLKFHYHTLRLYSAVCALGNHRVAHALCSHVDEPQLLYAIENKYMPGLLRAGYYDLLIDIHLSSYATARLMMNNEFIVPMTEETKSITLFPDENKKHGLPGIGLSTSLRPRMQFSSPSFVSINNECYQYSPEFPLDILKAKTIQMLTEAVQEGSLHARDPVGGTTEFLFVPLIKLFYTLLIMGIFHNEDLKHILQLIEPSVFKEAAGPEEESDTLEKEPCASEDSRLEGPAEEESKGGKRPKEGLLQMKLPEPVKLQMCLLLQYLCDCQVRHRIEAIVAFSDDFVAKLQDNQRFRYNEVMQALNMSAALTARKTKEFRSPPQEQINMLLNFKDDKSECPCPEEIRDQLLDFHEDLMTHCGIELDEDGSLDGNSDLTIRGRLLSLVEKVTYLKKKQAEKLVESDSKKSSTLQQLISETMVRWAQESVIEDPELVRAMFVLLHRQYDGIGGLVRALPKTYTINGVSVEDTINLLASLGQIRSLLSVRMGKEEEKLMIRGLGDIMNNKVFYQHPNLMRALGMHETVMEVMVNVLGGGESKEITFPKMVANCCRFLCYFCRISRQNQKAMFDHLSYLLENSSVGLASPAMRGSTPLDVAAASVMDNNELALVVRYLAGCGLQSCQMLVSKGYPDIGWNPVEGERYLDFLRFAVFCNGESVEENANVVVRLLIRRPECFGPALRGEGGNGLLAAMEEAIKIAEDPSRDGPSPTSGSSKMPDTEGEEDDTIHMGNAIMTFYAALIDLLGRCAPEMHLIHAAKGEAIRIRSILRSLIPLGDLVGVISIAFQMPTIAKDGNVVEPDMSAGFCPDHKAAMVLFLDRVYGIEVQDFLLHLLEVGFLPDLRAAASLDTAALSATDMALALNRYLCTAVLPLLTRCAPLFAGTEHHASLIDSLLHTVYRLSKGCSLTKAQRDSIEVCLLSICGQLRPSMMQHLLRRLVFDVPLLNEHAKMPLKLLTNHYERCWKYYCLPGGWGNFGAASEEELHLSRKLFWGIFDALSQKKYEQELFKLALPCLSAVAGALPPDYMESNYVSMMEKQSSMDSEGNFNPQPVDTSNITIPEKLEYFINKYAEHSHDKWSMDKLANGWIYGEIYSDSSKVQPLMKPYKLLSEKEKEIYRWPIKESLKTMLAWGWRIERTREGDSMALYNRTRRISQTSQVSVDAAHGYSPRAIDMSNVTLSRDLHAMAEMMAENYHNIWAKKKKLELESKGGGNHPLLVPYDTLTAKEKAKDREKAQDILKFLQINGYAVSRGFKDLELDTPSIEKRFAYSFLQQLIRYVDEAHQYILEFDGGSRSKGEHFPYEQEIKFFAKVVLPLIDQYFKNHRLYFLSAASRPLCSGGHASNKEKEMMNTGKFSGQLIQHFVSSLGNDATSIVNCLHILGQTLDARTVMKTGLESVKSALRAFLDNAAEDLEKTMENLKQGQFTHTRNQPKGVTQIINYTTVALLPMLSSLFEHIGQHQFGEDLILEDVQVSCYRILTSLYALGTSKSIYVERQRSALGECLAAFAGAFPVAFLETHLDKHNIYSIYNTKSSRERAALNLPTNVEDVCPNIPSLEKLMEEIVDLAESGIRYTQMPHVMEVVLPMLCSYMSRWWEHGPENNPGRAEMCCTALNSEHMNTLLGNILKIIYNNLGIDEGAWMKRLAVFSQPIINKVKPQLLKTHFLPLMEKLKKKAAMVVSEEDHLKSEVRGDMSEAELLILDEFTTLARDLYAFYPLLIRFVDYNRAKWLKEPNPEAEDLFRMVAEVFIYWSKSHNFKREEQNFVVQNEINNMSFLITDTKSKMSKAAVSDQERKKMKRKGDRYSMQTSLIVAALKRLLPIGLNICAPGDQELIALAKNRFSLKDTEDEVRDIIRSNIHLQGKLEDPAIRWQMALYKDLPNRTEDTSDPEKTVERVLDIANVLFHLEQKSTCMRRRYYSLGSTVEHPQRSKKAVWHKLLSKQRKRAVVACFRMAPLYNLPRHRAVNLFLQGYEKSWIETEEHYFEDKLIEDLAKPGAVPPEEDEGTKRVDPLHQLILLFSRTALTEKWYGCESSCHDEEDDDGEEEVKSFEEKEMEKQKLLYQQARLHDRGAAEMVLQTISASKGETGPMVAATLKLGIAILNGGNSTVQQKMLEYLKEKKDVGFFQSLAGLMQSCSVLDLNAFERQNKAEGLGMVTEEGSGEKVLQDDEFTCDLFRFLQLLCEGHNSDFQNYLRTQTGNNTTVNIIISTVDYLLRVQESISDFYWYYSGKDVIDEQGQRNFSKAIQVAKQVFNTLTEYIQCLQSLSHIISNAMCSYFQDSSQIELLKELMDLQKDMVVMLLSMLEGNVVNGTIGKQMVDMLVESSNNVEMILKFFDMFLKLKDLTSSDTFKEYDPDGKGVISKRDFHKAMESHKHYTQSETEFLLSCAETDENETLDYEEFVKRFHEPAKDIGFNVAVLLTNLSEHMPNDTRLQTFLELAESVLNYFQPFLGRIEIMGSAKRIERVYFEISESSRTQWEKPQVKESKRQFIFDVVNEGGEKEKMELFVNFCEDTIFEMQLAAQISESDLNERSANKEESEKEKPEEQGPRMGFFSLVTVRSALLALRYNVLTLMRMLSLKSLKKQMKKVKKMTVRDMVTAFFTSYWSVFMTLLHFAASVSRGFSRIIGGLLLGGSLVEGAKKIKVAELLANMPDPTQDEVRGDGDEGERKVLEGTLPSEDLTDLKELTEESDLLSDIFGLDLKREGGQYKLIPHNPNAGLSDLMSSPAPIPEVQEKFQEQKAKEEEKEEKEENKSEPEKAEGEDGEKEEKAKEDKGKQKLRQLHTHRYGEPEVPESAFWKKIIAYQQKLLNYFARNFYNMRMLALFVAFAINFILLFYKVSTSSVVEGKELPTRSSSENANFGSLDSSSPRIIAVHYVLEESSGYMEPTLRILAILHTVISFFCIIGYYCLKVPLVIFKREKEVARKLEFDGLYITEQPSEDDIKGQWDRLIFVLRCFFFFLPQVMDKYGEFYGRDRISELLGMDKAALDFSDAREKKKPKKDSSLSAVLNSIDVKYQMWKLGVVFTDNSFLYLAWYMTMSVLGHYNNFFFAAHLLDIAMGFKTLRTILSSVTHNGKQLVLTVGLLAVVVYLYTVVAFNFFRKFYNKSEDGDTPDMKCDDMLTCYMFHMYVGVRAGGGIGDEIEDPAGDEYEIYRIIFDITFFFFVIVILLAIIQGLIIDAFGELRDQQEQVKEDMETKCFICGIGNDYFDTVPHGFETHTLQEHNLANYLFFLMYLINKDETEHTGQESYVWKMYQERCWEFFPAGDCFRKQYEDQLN

The term pIC50 denotes −log10 of the IC50, conventionally taken in molar units. Read a high pIC50 as a low IC50. Broadly, the fraction remaining is what is left of the initial amount, in per cent. Regarding `CCCCC[C@@H]1OC(=O)[C@@H](C)N(C)C(=O)[C@H](CCCCC)OC(=O)[C@@H](C)N(C)C(=O)[C@H](CCCCC)OC(=O)[C@@H](C)N(C)C1=O` (single isomer, unassigned) [ent-B1], in data set [1], the pIC50 was 5.72 and 5.71. Further, in data set [2], the amount remaining at 2 h, 1900 ng/mL is around 95%.
